Assay results as given in publication PMC2362229 (British Journal of Cancer, 1999).

How the values were obtained:
[1] = target: T1, BSEP (Rattus norvegicus, UniProt O70127); assay: In vivo elimination of [3H]taurocholate into bile; conditions: GG918 4 mol kg1 body weight
T1 construct: Membrane fractions enriched in the hepatocyte canalicular membrane domain were prepared and characterized from rat and human liver; from tissue; host or cells: liver of male Wistar rats: canalicular membrane vesicles (A8) or the liver in vivo (A13)
T1 sequence (O70127 1-1321): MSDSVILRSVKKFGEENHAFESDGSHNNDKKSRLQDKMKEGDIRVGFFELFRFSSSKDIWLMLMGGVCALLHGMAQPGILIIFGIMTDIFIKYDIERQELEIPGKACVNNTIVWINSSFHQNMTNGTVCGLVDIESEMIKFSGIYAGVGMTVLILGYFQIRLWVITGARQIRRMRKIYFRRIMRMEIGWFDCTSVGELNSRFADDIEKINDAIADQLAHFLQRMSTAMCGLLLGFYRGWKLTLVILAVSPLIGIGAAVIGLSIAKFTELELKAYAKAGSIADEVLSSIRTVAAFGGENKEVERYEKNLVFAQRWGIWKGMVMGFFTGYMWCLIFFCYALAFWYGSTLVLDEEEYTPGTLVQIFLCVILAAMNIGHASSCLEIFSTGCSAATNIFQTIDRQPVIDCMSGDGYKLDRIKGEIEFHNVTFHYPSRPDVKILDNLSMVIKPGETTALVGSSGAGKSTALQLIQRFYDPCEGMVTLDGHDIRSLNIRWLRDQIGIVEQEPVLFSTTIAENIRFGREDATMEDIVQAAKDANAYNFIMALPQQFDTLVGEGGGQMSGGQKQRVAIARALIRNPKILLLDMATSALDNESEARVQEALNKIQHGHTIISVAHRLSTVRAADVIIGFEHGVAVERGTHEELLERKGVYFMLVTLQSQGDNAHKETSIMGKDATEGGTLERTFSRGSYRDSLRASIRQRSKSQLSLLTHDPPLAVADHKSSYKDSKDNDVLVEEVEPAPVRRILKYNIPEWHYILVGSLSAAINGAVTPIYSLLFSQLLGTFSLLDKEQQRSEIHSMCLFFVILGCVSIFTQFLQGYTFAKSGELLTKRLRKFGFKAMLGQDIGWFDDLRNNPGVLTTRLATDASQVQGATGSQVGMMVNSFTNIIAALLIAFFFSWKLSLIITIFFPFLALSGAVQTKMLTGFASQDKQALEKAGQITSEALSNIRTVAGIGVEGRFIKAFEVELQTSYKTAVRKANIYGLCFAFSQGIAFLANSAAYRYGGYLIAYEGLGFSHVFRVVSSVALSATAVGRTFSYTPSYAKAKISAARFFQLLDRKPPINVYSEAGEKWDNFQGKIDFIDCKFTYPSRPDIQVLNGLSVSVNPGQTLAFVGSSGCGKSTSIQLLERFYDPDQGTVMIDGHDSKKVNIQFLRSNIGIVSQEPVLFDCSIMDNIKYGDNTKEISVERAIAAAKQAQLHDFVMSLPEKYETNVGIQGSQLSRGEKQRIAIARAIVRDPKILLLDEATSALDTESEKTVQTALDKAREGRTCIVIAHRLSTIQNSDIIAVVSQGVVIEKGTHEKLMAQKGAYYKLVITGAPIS

[2] = target: T2, Mdr1 P-gp (Rattus norvegicus, UniProt P43245); assay: ATP-dependent [14C]doxorubicin transport in rat hepatocyte canalicular membrane vesicles; assay type: biochemical; conditions: read-out: half-maximal inhibition of [14C]doxorubicin transport (IC50)
T2 construct: Membrane fractions enriched in the hepatocyte canalicular membrane domain were prepared and characterized from rat and human liver; from tissue; host or cells: rat liver canalicular membrane vesicles

[3] = Bile flow in bile duct-cannulated rats; assay type: in vivo, rat; conditions: GG918 4 mol kg1 body weight i.v.
[4] = target: T3, recombinant rat Mdr1b P-gp (Rattus norvegicus, UniProt P43245); assay: Photoaffinity labelling with [3H]azidopine, membranes of recombinant mdr1b-BV-infected Sf9 cells; assay type: binding; conditions: […] GG918
T3 construct: made in house; host or cells: Sf9 insect cells, recombinant baculovirus (mdr1b-BV)

[5] = target: T4, Mdr1b P-gp (Rattus norvegicus, UniProt P43245); assay: In vivo elimination of [14C]doxorubicin into bile; set-up: from tissue; host or cells: liver of male Wistar rats: the liver in the living animal (A10, A11); conditions: GG918 14 mol kg1; 60 min
[6] = target: T5, rat P-gp (145 kDa protein) (Rattus norvegicus, UniProt P43245); assay: Photoaffinity labelling with [3H]azidopine, rat canalicular membranes; assay type: binding
T5 construct: Membrane fractions enriched in the hepatocyte canalicular membrane domain were prepared and characterized from rat and human liver; from tissue; host or cells: rat liver canalicular membrane vesicles

[7] = tested on: MDR1 P-glycoprotein; assay: in vitro; conditions: Wistar (rat), human
[8] = target: T2, Mdr1 P-gp; assay: ATP-dependent N-pentyl-[3H]quinidinium transport in rat hepatocyte canalicular membrane vesicles; assay type: biochemical
[9] = target: T6, conjugate export pump MRP2 (Rattus norvegicus, UniProt Q63120); assay: In vivo elimination of N-[3H]acetyl-LTE4 into bile; conditions: GG918 4 mol kg1
T6 construct: Membrane fractions enriched in the hepatocyte canalicular membrane domain were prepared and characterized from rat and human liver; from tissue; host or cells: liver of male Wistar rats: canalicular membrane vesicles (A7) or the liver in vivo (A12)

[10] = target: T7, bile salt export pump (BSEP) (Rattus norvegicus, UniProt O70127); assay: ATP-dependent [3H]taurocholate transport in rat hepatocyte canalicular membrane vesicles; assay type: biochemical; conditions: TC 5 M; 0.5% fetal calf serum; read-out: inhibition by 50% of ATP-dependent BSEP, [3H]taurocholate as substrate (IC50)
T7 construct: Membrane fractions enriched in the hepatocyte canalicular membrane domain were prepared and characterized from rat and human liver; from tissue; host or cells: liver of male Wistar rats: canalicular membrane vesicles (A8) or the liver in vivo (A13)
T7 sequence (O70127 1-1321): T1 sequence (O70127 1-1321)

[11] = target: T4, Mdr1b P-gp; assay: ATP-dependent [3H]daunorubicin transport into rat hepatocyte canalicular membrane vesicles
[12] = target: T6, conjugate export pump MRP2; assay: ATP-dependent [3H]LTC4 transport in rat hepatocyte canalicular membrane vesicles; assay type: biochemical; conditions: LTC4 50 nM; not significantly inhibited up to 20 µM

T4 sequence (P43245 whole entry): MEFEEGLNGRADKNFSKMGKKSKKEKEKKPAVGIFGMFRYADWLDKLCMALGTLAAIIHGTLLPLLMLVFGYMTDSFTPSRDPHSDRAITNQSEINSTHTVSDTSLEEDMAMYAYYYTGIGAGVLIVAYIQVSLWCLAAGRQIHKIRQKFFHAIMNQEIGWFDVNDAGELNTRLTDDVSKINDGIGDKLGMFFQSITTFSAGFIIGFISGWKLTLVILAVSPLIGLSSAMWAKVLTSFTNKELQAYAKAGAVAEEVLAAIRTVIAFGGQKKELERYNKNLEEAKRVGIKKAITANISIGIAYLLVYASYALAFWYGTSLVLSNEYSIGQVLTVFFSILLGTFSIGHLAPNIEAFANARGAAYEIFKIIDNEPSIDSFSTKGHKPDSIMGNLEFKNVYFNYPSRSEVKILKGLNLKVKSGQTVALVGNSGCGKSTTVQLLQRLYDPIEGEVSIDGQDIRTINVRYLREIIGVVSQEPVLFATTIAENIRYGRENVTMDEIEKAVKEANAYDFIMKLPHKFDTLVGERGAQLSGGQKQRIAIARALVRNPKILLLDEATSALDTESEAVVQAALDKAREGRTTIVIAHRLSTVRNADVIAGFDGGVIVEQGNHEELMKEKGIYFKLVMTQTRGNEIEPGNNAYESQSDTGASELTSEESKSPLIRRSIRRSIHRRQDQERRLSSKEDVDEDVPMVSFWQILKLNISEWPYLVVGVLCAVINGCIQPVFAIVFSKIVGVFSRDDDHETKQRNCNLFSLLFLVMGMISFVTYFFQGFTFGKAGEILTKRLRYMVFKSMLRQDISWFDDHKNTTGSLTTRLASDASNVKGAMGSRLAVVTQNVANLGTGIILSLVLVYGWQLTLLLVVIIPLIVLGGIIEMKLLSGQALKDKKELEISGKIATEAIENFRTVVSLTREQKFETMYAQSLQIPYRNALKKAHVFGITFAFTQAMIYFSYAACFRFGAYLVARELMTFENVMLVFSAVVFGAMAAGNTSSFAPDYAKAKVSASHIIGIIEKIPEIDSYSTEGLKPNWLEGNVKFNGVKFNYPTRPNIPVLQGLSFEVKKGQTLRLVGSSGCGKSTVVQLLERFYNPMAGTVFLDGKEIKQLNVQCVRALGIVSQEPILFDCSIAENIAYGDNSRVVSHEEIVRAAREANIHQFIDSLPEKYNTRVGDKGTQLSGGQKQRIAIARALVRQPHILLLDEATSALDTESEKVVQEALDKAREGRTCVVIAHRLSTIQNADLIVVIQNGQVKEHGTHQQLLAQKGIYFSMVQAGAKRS
T2 sequence (P43245 whole entry, the tested form may be a part): as the sequence (P43245 whole entry) above
T5 sequence (P43245 whole entry, the tested form may be a part): as the sequence (P43245 whole entry) above
T3 sequence (P43245 whole entry): as above

Structure (SMILES)	effect on biliary excretion of [3H]taurocholate [1]	IC50 [2] [µM]	bile flow [3]	reduction of [3H]azidopine incorporation into the Mdr1b protein [4] [%]	[14C]doxorubicin elimination suppressed to (% of untreated) [5] [%]	reduction of [3H]azidopine labelling of rat P-gp ([6]; 40 µM GG918) [%]	reduction of [3H]azidopine labelling of rat P-gp ([6]; 10 M GG918) [%]	concentration for potent competition with [3H]azidopine photoaffinity labelling versus concentration for potent inhibition of substrate transport by Mdr1b P-gp ([6]; fold higher)	IC50 [7] [µM]	suppression of ATP-dependent transport of N-pentyl-[3H]quinidinium ([8]; 10 nM GG918) [%]	suppression of ATP-dependent transport of N-pentyl-[3H]quinidinium ([8]; 100 nM GG918) [%]	IC50 ([8]; rat hepatocyte canalicular membranes, substrate 1 M, read-out: half-maximal inhibition of N-pentyl-[3H]quinidinium transport (IC50)) [µM]	inhibition of N-[3H]acetyl-LTE4 secretion [9]	IC50 [10] [µM]	Ki [11] [µM]	IC50 ([11]; IC50 Dau (Figure 7), DAU 20 M, Figure 7 inset) [µM]	IC50 ([11]; half-maximal inhibition of [3H]daunorubicin transport, [3H]daunorubicin 20 M, 0.5% fetal calf serum) [µM]	manner of inhibition of [3H]daunorubicin transport ([11]; rat canalicular inside-out vesicles, 30 nM GG918)	IC50 [12] [µM]	Vmax of ATP-dependent daunorubicin transport ([11]; Lineweaver-Burk plots, rat canalicular vesicles) [pmol mg1 min1]
COc1cc2c(cc1OC)CN(CCc1ccc(NC(=O)c3cccc4c(=O)c5cccc(OC)c5[nH]c34)cc1)CC2 [GG918, N-{4-[2-(1,2,3,4-tetrahydro-6,7-dimethoxy-2-isoquinolinyl)-ethyl]-phenyl}-9,10-dihydro-5-methoxy-9-oxo-4-acridine carboxamide]	did not affect	0.08	not affected	80	27	78	38	at least 100 fold	0.008 to 0.08	42	98	0.008	No significant inhibition	~3	0.035	0.02	~0.02	competitive	> 20	–
COc1cccc2c1C(=O)c1c(O)c3c(c(O)c1C2=O)C[C@@](O)(C(C)=O)C[C@@H]3O[C@H]1C[C@H](N)[C@H](O)[C@H](C)O1 [daunorubicin]	–	–	–	–	–	–	–	–	–	–	–	–	–	–	–	–	–	–	–	721
